Here are results for one compound from patent publication US20210085244A1, “WRIST RIGIDITY ASSESSMENT DEVICE AND METHOD FOR IDENTIFYING A CLINICALLY EFFECTIVE DOSE” (INESC TEC- INSTITUTO DE ENGENHARIA DE SISTEMAS …, priority 2015, published 2021).

In this assay the test system is Parkinson's Disease (PD) patients. Briefly: Levodopa level medication test: UPDRS rigidity score and wrist rigidity index by wearable angular velocity sensor. Conditions: for UPDRS: motor classification for Rigidity & Rest Tremor (0 to 4); for Rigidity label (Avg): average, higher values = lower rigidity; for Rigidity label: higher index values correspond to lower perceived wrist rigidity. In kind it is in vivo. The text has this: FIG. 6: angular velocity data of a wrist rigidity assessment recorded using a device according to an embodiment of the present disclosure for a first subject for a period of time (a) without levodopa and (b) with a clinically effective dosage regime of levodopa. Also pictured are values of a rigidity index (label) calculated according to the present disclosure. Higher index values correspond to lower perceived wrist rigidity. FIG. 7: angular velocity data of a wrist rigidity assessment recorded using a device according to an embodiment of the present disclosure for a second subject for a period of time (a) without levodopa and (b) with a clinically effective dosage regime of levodopa. Also pictured are values of a rigidity index (label) calculated according to the present disclosure. Higher index values correspond to lower perceived wrist rigidity. Levodopa is an amino acid precursor of dopamine with antiparkinsonian properties. Levodopa is a prodrug that is converted to dopamine by DOPA decarboxylase and can cross the blood-brain barrier. Two patients (person and person) were subjected to a Levodopa level medication test where an experienced neurologist evaluates the subjective Unified PD Rating Scale (UPDRS) motor semi-quantitative classification for Rigidity & Rest Tremor (0 to 4) for a baseline (no levodopa) and in steps of increasing levodopa dosages until a UPDRS of 0 is achieved. This is the dosage as prescribed to the patient. At this dosage, wrist rigidity was evaluated as presently disclosed. As described above, higher index values correspond to lower perceived wrist rigidities. See also FIG. 6-7. A threshold of a rigidity measure according to the present disclosure, for example of 70% or 80%, can thus be used to objectively identify a clinically effective dosage regime. Furthermore, a threshold of a rigidity measure according to the present disclosure can also be used to identify a clinically effective dosage regime which also minimizes the risk of side effects.

On to `N[C@@H](Cc1ccc(O)c(O)c1)C(=O)O` [Levodopa], for which the UPDRS reads like this: (Subject 1, with clinically effective dosage of levodopa, baseline without levodopa 3) 0; (Subject 2, with clinically effective dosage of levodopa, baseline without levodopa 2) 0. Also, the “Rigidity label (Avg)” value is, setting by setting: (Subject 1, with levodopa, baseline without levodopa 46.9) 74.3%; (Subject 2, with levodopa, baseline without levodopa 48.6) 84.9%. For the same compound, the Rigidity label reads like this: (Subject 1, with levodopa, baseline without levodopa 40-50) 70-80%; (Subject 2, with levodopa, baseline without levodopa 50) 80-90%.
